These results are taken from ChEMBL document CHEMBL1129588, “Development of potent thrombin receptor antagonist peptides” (J Med Chem, 1996).

Broadly, the IC50 is the concentration that inhibits the measured activity by half. Higher therefore signals weaker potency in that assay.

Starred links: 1 amine or outer side, 2 acyl side, 3 side chain; linkers in the order of their positions; H or OH if unused. Non-standard residues stand in square brackets, D forms with d. Residues, ends and D or L forms follow the SMILES beside them. *: point of attachment. X8 = C#CC(=O)c1cccc(N([C@@H](Cc2ccc(F)cc2)C(=O)[*:2])[*:1])c1; X9 = CCC(=O)c1cccc(N([C@@H](Cc2ccc(F)cc2)C(=O)[*:2])[*:1])c1; X3 = CC(=O)N(C(=O)/C=C/c1ccccc1)[C@@H](Cc1ccc(F)cc1)C(=O)*; Phe(4-guanidino) = N=C(N)Nc1ccc(C[C@H](N)C(=O)O)cc1; Phe(4-F) = N[C@@H](Cc1ccc(F)cc1)C(=O)O; Benzoyl(4-Cl) = O=C(c1ccc(Cl)cc1)*; X10 = O=C(c1c[nH]c2ccccc12)*; X5 = O=C(c1cc2ccccc2[nH]1)*; Orn = NCCC[C@H](N)C(=O)O

In this experiment the target is T1, Proteinase-activated receptor 1 (Homo sapiens, UniProt P25116).
T1 sequence (P25116 whole entry): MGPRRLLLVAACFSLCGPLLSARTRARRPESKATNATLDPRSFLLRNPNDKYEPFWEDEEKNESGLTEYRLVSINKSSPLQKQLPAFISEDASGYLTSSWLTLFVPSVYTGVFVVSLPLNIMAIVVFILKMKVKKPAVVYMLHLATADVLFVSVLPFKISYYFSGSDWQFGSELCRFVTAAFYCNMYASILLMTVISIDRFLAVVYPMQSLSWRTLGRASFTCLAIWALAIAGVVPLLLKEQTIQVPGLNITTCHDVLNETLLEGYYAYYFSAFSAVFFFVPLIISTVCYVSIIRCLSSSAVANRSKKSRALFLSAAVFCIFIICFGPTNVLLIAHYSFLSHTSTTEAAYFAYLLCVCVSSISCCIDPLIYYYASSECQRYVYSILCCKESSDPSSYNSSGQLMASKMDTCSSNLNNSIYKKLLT
The compound `CC(=O)N(c1cccnc1)[C@@H](Cc1ccc(F)cc1)C(=O)N[C@@H](Cc1ccc(NC(=N)N)cc1)C(=O)N[C@@H](CC(C)C)C(=O)N[C@@H](CCCN=C(N)N)C(N)=O` registered an IC50 of 0.95 µM.
For the compound `CC(=O)N(C(=O)/C=C/c1ccccc1)[C@@H](Cc1ccc(F)cc1)C(=O)N[C@@H](CCCCN=C(N)N)C(=O)N[C@@H](CC(C)C)C(=O)N[C@@H](CCCN=C(N)N)C(N)=O`, the IC50 came to 0.012 µM. This IC50 lies about 79-fold lower than the previous one.
In the case of `CC(=O)N(C(=O)/C=C/c1ccccc1)[C@@H](Cc1cccnc1)C(=O)N[C@@H](Cc1ccc(NC(=N)N)cc1)C(=O)N[C@@H](CC(C)C)C(=O)N[C@@H](CCCN=C(N)N)C(N)=O`, the IC50 came out at 3.44 µM.
Consider `CC(=O)N(C(=O)/C=C/c1ccccc1)[C@@H](Cc1ccc(F)cc1)C(=O)N[C@@H](Cc1ccc(N)cc1)C(=O)N[C@@H](CC(C)C)C(=O)N[C@@H](CCCN=C(N)N)C(N)=O`, for which the IC50 turned out to be 0.37 µM.
`CC(=O)N(C(=O)/C=C/c1ccccc1)[C@@H](CC1CCCCC1)C(=O)N[C@@H](Cc1ccc(NC(=N)N)cc1)C(=O)N[C@@H](CC(C)C)C(=O)N[C@@H](CCCN=C(N)N)C(N)=O` yielded an IC50 of 0.093 µM.
`CC(=O)N(c1c[nH]c2ccccc12)[C@@H](Cc1ccc(F)cc1)C(=O)N[C@@H](Cc1ccc(NC(=N)N)cc1)C(=O)N[C@@H](CC(C)C)C(=O)N[C@@H](CCCN=C(N)N)C(N)=O`: half-maximal inhibition (IC50) required 0.5 µM.
Consider `CCC(=O)c1cccc(N(C(C)=O)[C@@H](Cc2ccc(F)cc2)C(=O)N[C@@H](Cc2ccc(NC(=N)N)cc2)C(=O)N[C@@H](CC(C)C)C(=O)N[C@@H](CCCN=C(N)N)C(=O)N[C@@H](CCCN=C(N)N)C(N)=O)c1` (Ac-[X9][Phe(4-guanidino)]LRR-NH2), for which 0.009 µM corresponded to half-maximal inhibition (IC50). This IC50 is about 56-fold lower than that of the compound before.
For `CC(=O)N(c1cccs1)[C@@H](Cc1ccc(F)cc1)C(=O)N[C@@H](Cc1ccc(NC(=N)N)cc1)C(=O)N[C@@H](CC(C)C)C(=O)N[C@@H](CCCN=C(N)N)C(N)=O`, the IC50 worked out at 0.26 µM.
Compound `CC(=O)N(C(=O)/C=C/c1ccc(-c2ccccc2)cc1)[C@@H](Cc1ccc(F)cc1)C(=O)N[C@@H](Cc1ccc(NC(=N)N)cc1)C(=O)N[C@@H](CC(C)C)C(=O)N[C@@H](CCCN=C(N)N)C(N)=O` displayed an IC50 of 1.53 µM.
Compound `CC(=O)N(C(=O)/C=C/c1ccccc1)[C@@H](Cc1ccc(F)cc1)C(=O)N[C@@H](CCc1ccccc1)C(=O)N[C@@H](CC(C)C)C(=O)N[C@@H](CCCN=C(N)N)C(N)=O` yielded a concentration for half-maximal inhibition (IC50) of 0.63 µM.
The compound `CC(=O)N(C(=O)/C=C/c1ccccc1)[C@@H](Cc1ccc(F)cc1)C(=O)N[C@@H](Cc1ccc(NC(=N)N)cc1)C(=O)N[C@@H](CC(C)C)C(=O)N[C@@H](CCCN)C(N)=O` had a concentration for half-maximal inhibition (IC50) of 0.017 µM.
The compound `CC(=O)N(C(=O)/C=C/c1ccccc1)[C@@H](Cc1ccc(F)cc1)C(=O)N[C@@H](Cc1cccnc1)C(=O)N[C@@H](CC(C)C)C(=O)N[C@@H](CCCN=C(N)N)C(N)=O` had an IC50 of 0.34 µM.
Turning to `CC(=O)N(c1ccccc1F)[C@@H](Cc1ccc(F)cc1)C(=O)N[C@@H](Cc1ccc(NC(=N)N)cc1)C(=O)N[C@@H](CC(C)C)C(=O)N[C@@H](CCCN=C(N)N)C(N)=O`, the IC50 came to 0.56 µM.
As for `CC(=O)N(C(=O)/C=C/c1ccccc1)[C@@H](Cc1ccc(F)cc1)C(=O)N[C@@H](Cc1ccc(NC(=N)N)cc1)C(=O)N[C@@H](CC(C)C)C(N)=O`, the IC50 worked out at 0.11 µM.
Turning to `CC(=O)N(C(=O)/C=C/c1ccccc1)[C@@H](Cc1ccc(F)cc1)C(=O)N[C@@H](Cc1ccc(NC(=N)N)cc1)C(=O)N[C@@H](CC(C)C)C(=O)N[C@@H](CCCN=C(N)N)C(N)=O`, the IC50 was found to be 0.0078 µM.
The compound `CC(=O)N(C(=O)/C=C/c1ccccc1)[C@@H](Cc1ccc(F)cc1)C(=O)N[C@@H](Cc1ccc(NC(=N)N)cc1)C(=O)N[C@@H](CC(C)C)C(=O)N[C@@H](CCCN=C(N)N)C(=O)N[C@@H](CCCN=C(N)N)C(N)=O` (X3-[Phe(4-guanidino)]LRR-NH2) gave an IC50 of 0.0075 µM.
As for `CC(C)C[C@H](NC(=O)[C@H](Cc1ccc(NC(=N)N)cc1)NC(=O)[C@H](Cc1ccc(F)cc1)NC(=O)c1ccc(Cl)cc1)C(=O)N[C@@H](CCCN=C(N)N)C(N)=O` ({Benzoyl(4-Cl)}-[Phe(4-F)][Phe(4-guanidino)]LR-NH2), the figure is 0.026 µM; as for `CC(=O)N(C(=O)/C=C/c1cccc(Cl)c1)[C@@H](Cc1ccc(F)cc1)C(=O)N[C@@H](Cc1ccc(NC(=N)N)cc1)C(=O)N[C@@H](CC(C)C)C(=O)N[C@@H](CCCN=C(N)N)C(N)=O`, 0.041 µM; as for `CC(=O)N(C(=O)/C=C/c1ccccc1)[C@@H](Cc1ccc(F)cc1)C(=O)N[C@@H](Cc1ccc(NC(=N)N)cc1)C(=O)N[C@@H](CC(C)C)C(=O)N[C@@H](CCCN=C(N)N)C(=O)N[C@@H](CCCN)C(N)=O` (X3-[Phe(4-guanidino)]LR[Orn]-NH2), 0.0066 µM.
On to `CC(=O)N(C(=O)/C=C/c1ccc(C)cc1)[C@@H](Cc1ccc(F)cc1)C(=O)N[C@@H](Cc1ccc(NC(=N)N)cc1)C(=O)N[C@@H](CC(C)C)C(=O)N[C@@H](CCCN=C(N)N)C(N)=O` (stereo in doubt; 63), for which inhibition was half-maximal at 0.043 µM (IC50).
As for `CC(=O)N(c1ccccc1)[C@@H](Cc1ccc(F)cc1)C(=O)N[C@@H](Cc1ccc(NC(=N)N)cc1)C(=O)N[C@@H](CC(C)C)C(=O)N[C@@H](CCCN=C(N)N)C(N)=O`, the IC50 turned out to be 0.68 µM. This IC50 is about 16-fold higher than that of the compound before.
`CC(=O)N(C(=O)/C=C/c1ccccc1)[C@@H](Cc1ccc(F)cc1)C(=O)N[C@@H](CCCN=C(N)N)C(=O)N[C@@H](CC(C)C)C(=O)N[C@@H](CCCN=C(N)N)C(N)=O` yielded an IC50 of 0.028 µM.
With `CC(=O)N(Oc1cccs1)[C@@H](Cc1ccc(F)cc1)C(=O)N[C@@H](Cc1ccc(NC(=N)N)cc1)C(=O)N[C@@H](CC(C)C)C(=O)N[C@@H](CCCN=C(N)N)C(N)=O`, 0.22 µM corresponded to half-maximal inhibition (IC50).
The compound `COc1ccc(C[C@H](NC(=O)[C@H](Cc2ccc(F)cc2)N(C(C)=O)C(=O)/C=C/c2ccccc2)C(=O)N[C@@H](CC(C)C)C(=O)N[C@@H](CCCN=C(N)N)C(N)=O)cc1` gave an IC50 of 1.18 µM.
The compound `C=CC(=O)c1ccsc1N(C(C)=O)[C@@H](Cc1ccc(F)cc1)C(=O)N[C@@H](Cc1ccc(NC(=N)N)cc1)C(=O)N[C@@H](CC(C)C)C(=O)N[C@@H](CCCN=C(N)N)C(N)=O` yielded an IC50 of 0.023 µM.
The compound `CC(=O)N(C(=O)/C=C/c1ccc(F)cc1)[C@@H](Cc1ccc(F)cc1)C(=O)N[C@@H](Cc1ccc(NC(=N)N)cc1)C(=O)N[C@@H](CC(C)C)C(=O)N[C@@H](CCCN=C(N)N)C(N)=O` (stereo in doubt; 62) yielded a half-maximal inhibitory concentration (IC50) of 0.023 µM. That is a double-digit nanomolar value.
Consider `CC(=O)N(C(=O)/C=C/c1ccccc1)[C@@H](Cc1ccc(F)cc1)C(=O)N[C@@H](Cc1c[nH]cn1)C(=O)N[C@@H](CC(C)C)C(=O)N[C@@H](CCCN=C(N)N)C(N)=O`, for which the IC50 was 0.47 µM.
In turn, `CC(C)C[C@H](NC(=O)[C@H](Cc1ccc(NC(=N)N)cc1)NC(=O)[C@H](Cc1ccc(F)cc1)NC(=O)c1cc2ccccc2[nH]1)C(=O)N[C@@H](CCCN=C(N)N)C(N)=O` (X5-[Phe(4-F)][Phe(4-guanidino)]LR-NH2) yielded an IC50 of 0.024 µM. This IC50 lies about 20-fold lower than the previous one.
With `CC(=O)N(C(=O)/C=C/c1ccccc1)[C@@H](Cc1ccc(F)cc1)C(=O)N[C@@H](Cc1ccc(NC(=N)N)cc1)C(=O)N[C@@H](CCCN)C(N)=O`, the midpoint of inhibition, the IC50, lay at 0.87 µM. Against the preceding compound, the IC50 is about 36-fold higher.
As for `CC(=O)N(C(=O)/C=C/c1ccccc1)[C@@H](Cc1ccc(F)cc1)C(=O)N[C@@H](Cc1ccc(NC(=N)N)cc1)C(=O)N[C@@H](CC(C)C)C(=O)N[C@@H](CCCN)C(=O)CC(N)=O`, the figure is 0.044 µM.
For `CC(=O)N(C(=O)/C=C/c1ccccc1)[C@@H](Cc1cccs1)C(=O)N[C@@H](Cc1ccc(NC(=N)N)cc1)C(=O)N[C@@H](CC(C)C)C(=O)N[C@@H](CCCN=C(N)N)C(N)=O` the value was 0.042 µM.
For `CC(C)C[C@H](NC(=O)[C@H](Cc1ccc(NC(=N)N)cc1)NC(=O)[C@H](Cc1ccc(F)cc1)NC(=O)c1c[nH]c2ccccc12)C(=O)N[C@@H](CCCN=C(N)N)C(N)=O` (X10-[Phe(4-F)][Phe(4-guanidino)]LR-NH2) the value was 0.019 µM; for `CC(=O)N(C(=O)/C=C/c1ccccc1)[C@@H](Cc1ccc(F)cc1)C(=O)N[C@@H](Cc1ccccc1)C(=O)N[C@@H](CC(C)C)C(=O)N[C@@H](CCCN=C(N)N)C(N)=O`, 1.12 µM.
For the compound `CC(=O)N(C(=O)/C=C/c1ccc(N)cc1)[C@@H](Cc1ccc(F)cc1)C(=O)N[C@@H](Cc1ccc(NC(=N)N)cc1)C(=O)N[C@@H](CC(C)C)C(=O)N[C@@H](CCCN=C(N)N)C(N)=O`, the IC50 turned out to be 0.061 µM.
In turn, `C#CC(=O)c1cccc(N(C(C)=O)[C@@H](Cc2ccc(F)cc2)C(=O)N[C@@H](Cc2ccc(NC(=N)N)cc2)C(=O)N[C@@H](CC(C)C)C(=O)N[C@@H](CCCN=C(N)N)C(=O)N[C@@H](CCCN=C(N)N)C(N)=O)c1` (Ac-[X8][Phe(4-guanidino)]LRR-NH2) displayed an IC50 of 0.004 µM.
`COc1ccc(/C=C/C(=O)N(C(C)=O)[C@@H](Cc2ccc(F)cc2)C(=O)N[C@@H](Cc2ccc(NC(=N)N)cc2)C(=O)N[C@@H](CC(C)C)C(=O)N[C@@H](CCCN=C(N)N)C(N)=O)cc1` gave an IC50 of 0.04 µM. Against the preceding compound, the IC50 is about 10-fold higher.
As to `CC(=O)N(c1ccc(F)cc1)[C@@H](Cc1ccc(F)cc1)C(=O)N[C@@H](Cc1ccc(NC(=N)N)cc1)C(=O)N[C@@H](CC(C)C)C(=O)N[C@@H](CCCN=C(N)N)C(N)=O`, the IC50 is 0.35 µM.
`CC(=O)N(C(=O)/C=C/c1ccccc1)[C@@H](Cc1ccc(F)cc1)C(=O)N[C@@H](CCN=C(N(C)C)N(C)C)C(=O)N[C@@H](CC(C)C)C(=O)N[C@@H](CCCN=C(N)N)C(N)=O` displayed an IC50 of 0.34 µM.
With `CC(=O)N(C(=O)COc1ccccc1)[C@@H](Cc1ccc(F)cc1)C(=O)N[C@@H](Cc1ccc(NC(=N)N)cc1)C(=O)N[C@@H](CC(C)C)C(=O)N[C@@H](CCCN=C(N)N)C(N)=O`, the IC50 was 0.021 µM.
For the compound `CCCC(=O)c1ccc(N(C(C)=O)[C@@H](Cc2ccc(F)cc2)C(=O)N[C@@H](Cc2ccc(NC(=N)N)cc2)C(=O)N[C@@H](CC(C)C)C(=O)N[C@@H](CCCN=C(N)N)C(N)=O)cc1`, the IC50 was 1.26 µM.
